The subject of experiment [1] is MDAMB-435S (BRAFV600E mutated) cell line. The experiment can be described thus: CCK8 live cell dehydrogenase cytotoxicity assay, MDAMB-435S (96-well). It counts as cell-based, human. The following applies: 48 h. The method, then:
(§1) The cells were then treated with the respective test compounds.
(§2) At the end of the incubation periods, the plates were assayed using the CCK8 cytotoxicity assay protocol. The synergism was determined by the combination index (CI) calculated using the Compusyn software by Chou and Talalay (4). CI<1 is synergistic, CI=1 is additive and CI>1 is antagonistic.
(§3) Statistical analysis was performed using the Student t test, and a p value of <0.05 was considered significant. Data are expressed as the mean±standard error of the mean (SEM). The mean value was obtained from at least two independent experiments, each performed in triplicate.
(§4) Logarithmically growing cells were plated at a density of 3×10^3 cells/well and allowed to recover for 16-18 h. […] After 48 h, cell toxicity was determined by CCK-8 reagent (Dojindo Molecular Technologies, Inc, Maryland, and Japan). In accordance with the manufacturer's instructions, 5 μL/well CCK-8 reagent was added and plates were incubated for 2 h. The toxicity was determined by measuring the absorbance on Tecan Sapphire multi-fluorescence micro-plate reader at a wavelength of 450 nm corrected to 650 nm and normalized to controls. All the experiments were performed twice in triplicates.

The test system of experiment [2] is G361 melanoma cells. Put plainly: Annexin V-FITC staining for detection of early apoptosis. Conditions: 1 μM of each compound, alone or together, 24 h. Type of experiment: cell-based, human. The method, then:
Annexin V-FITC is a sensitive probe for identifying apoptotic cells. During early apoptosis, the membrane phospholipid phosphatidyl serine (PS) is translocated from the inner to the outer leaflet of the plasma membrane, thereby exposing PS to the external cellular environment. Annexin V is a 35-36 kDa Calcium dependent phospholipid binding protein that has a high affinity for PS and binds to cells with exposed PS.
The melanoma cells G361 was seeded in […] tissue culture flasks. After 24 h, cells were treated with: i) compound A (1 μM); ii) vemurafenib (1 μM); and iii) compound A (1 μM) and vemurafenib (1 μM) together; for 24 h. The control cells were left untreated for 24 h. Medium containing floating cells were collected and pooled with the adherent cells after harvesting with trypsin at the different time points. The cells were washed twice with cold PBS with centrifugation at 1000 rpm for 10 minutes. The cell pellet was resuspended in 1× binding buffer (10 mm HEPES pH 7.4, 140 mM NaCl, 2.5 mM CaCl2) at a concentration of 1×10^6 cells/mL. 100 μL of the solution (1×10^5 cells) were stained with Annexin V-FITC and propidium iodide. The cells were incubated for 15 min at room temperature (25-30° C.) in the dark and the sample was analysed by flow cytometry.

The subject of experiment [3] is G361 melanoma cells. Put plainly: Analysis of cell cycle distribution using flow cytometry, G361. The following applies: 5 days; for apoptosis (sub G1 phase): 1 μM of each compound, alone or together. Type of experiment: cell-based, human. The method, then:
The G361/SK-MEL3 melanoma cells were seeded in […] tissue culture flasks. After 24 h, G361 cells were treated with: i) compound A (1 μM); ii) vemurafenib (1 μM); and iii) compound A (1 μM) and vemurafenib (1 μM) together for 5 days.
(§5) The control cells were left untreated for 5 days. Both detached and adherent cells were harvested at the end of 5 days. The cells were washed twice with approximately 5 mL of phosphate buffered saline (PBS) with centrifugation at 1000 rpm for 10 min. The cells were resuspended in 500 μL of PBS and fixed in 500 μL ice-cold 70% ethanol. The fixed cells were incubated at room temperature for 30 min, spun at 1000 rpm for 10 min. To the cell pellet, 1 mL of chilled 70% ethanol was added and stored below 0° C. till further analysis. The cells were washed twice with PBS to remove fixative and re-suspended in 250 μL PBS. To this 12.5 μL of propidium iodide (1 mg/ml in PBS) and 12.5 μL Rnase A (1 mg/mL) was added. After incubation at 37° C. for 30 min, the cells were analyzed using flow cytometry.
(§6) A flow cytometer (Becton Dickinson FACS Calibur, USA) was used for these studies in accordance with the manufacturer's recommendations. The argon ion laser set at 488 nm was used as an excitation source. Cells with DNA content between 2n and 4n were designated as being in G1, S and G2/M phases of the cell cycle, as defined by the level of red fluorescence. […] The number of cells in each cell cycle compartment was expressed as a percentage of the total number of cells present.
(In general: A flow cytometer gives signals particle by particle.)

Experiment [4] has as its system A375 (BRAFV600E mutated) cell line. The experiment can be described thus: CCK8 live cell dehydrogenase assay, A375 (384-well, Example 2). It counts as cell-based, human. The following applies: A375 parental, single agent, 48 h.
Procedure: Logarithmically growing human BRAFV600E mutated melanoma cells were seeded at a density of 1500 cells/well in 30 μL of Dulbecco's Modified Eagle medium medium (DMEM) in 384-well plate (Corning, USA) using Tecan automated platform (FreedomEvo Liquid handling system) and incubated for about 12-16 h to allow the cells to adhere. […] The controls used were only cells or cells along with the vehicle (DMSO).
The plates were incubated for 48 h in humidified 5% CO2 incubator at 37°±1° C. Post incubation the plates were assayed using the CCK8 reagent (Dojindo Molecular Technologies, Inc, Maryland, and Japan). In accordance with the manufacturer's instructions, 3 μL CCK-8 reagent was added in each well of the 384 well plate and plates were incubated for 2 h. The toxicity was determined by measuring the absorbance on Tecan Sapphire multi-fluorescence micro-plate reader at a wavelength of 450 nm normalized to controls. All the experiments were performed in quadruplets.
In experiment [5] the test system is G361 (BRAFV600E mutated) cell line. The experiment can be described thus: CCK8 live cell dehydrogenase cytotoxicity assay, G361 (96-well). The following applies: 48 h. Type of experiment: cell-based, human. The method, then: as §1, §2, §3, §4
The test system of experiment [6] is SK-MEL3 melanoma cells. The experiment can be described thus: Analysis of cell cycle distribution using flow cytometry, SK-MEL3. Conditions: 5 days. It counts as cell-based. The method, then:
In case of SK-MEL3 melanoma cells, the cells were treated with: i) compound A (1 μM); ii) vemurafenib (10 μM); and iii) compound A (1 μM) and vemurafenib (10 μM) together for 5 days.
as §5, §6

The test system of experiment [7] is A375R cell line (vemurafenib resistant). Put plainly: CCK8 live cell dehydrogenase assay, A375R (384-well, Example 2). Type of experiment: cell-based, human. The following applies: single agent, 48 h. The method, then: The cytotoxicity studies using all the test compounds as single agents and in combinations were carried out using the CCK8 live cell dehydrogenase assay.
Logarithmically growing human BRAFV600E mutated melanoma cells were seeded at a density of 1500 cells/well in 30 μL of Dulbecco's Modified Eagle medium medium (DMEM) in 384-well plate (Corning, USA) using Tecan automated platform (FreedomEvo Liquid handling system) and incubated for about 12-16 h to allow the cells to adhere. The cells were then treated for 48 h with different doses of compound A and anticancer agents (vemurafenib or dabrafenib or trametinib) as monotherapy (used singly) and in combinations. Studies using different dosages were carried out for each combination (e.g. combination of compound A and vemurafenib). […]
The plates were incubated for 48 h in humidified 5% CO2 incubator at 37°±1° C. […] The toxicity was determined by measuring the absorbance on Tecan Sapphire multi-fluorescence micro-plate reader at a wavelength of 450 nm normalized to controls. […]
The potency of the combination was quantified using Calcusyn software (Biosoft, Ferguson, MO, USA) which is based on the Chou Talalay method that calculates a combination index (CI) with CI values less than 1 indicating synergy.

Experiment [8] relates to A375 (BRAFV600E mutated) cell line. Put plainly: CCK8 live cell dehydrogenase cytotoxicity assay, A375 (96-well). Type of experiment: cell-based, human. The following applies: 48 h. The method, then:
as §1, §2, §3, §4

As a reminder, the IC50 is the point on the concentration scale where inhibition reaches its midpoint. As a reminder, the inhibition is the relative decrease from the control value, in per cent.

The structures appear in SMILES notation. Where “and” joins values, the source holds several entries; their conditions need not be identical. Equal values may be shown once.

With `CN1CC[C@@H](c2c(O)cc(O)c3c(=O)cc(-c4ccc(C(F)(F)F)cc4Cl)oc23)[C@@H]1CO.Cl` (relative stereo) [compound A, (+)-trans-2-(2-chloro-4-trifluoromethylphenyl)-5,7-dihydroxy-8-(2-hydroxy-methyl-1-methylpyrrolidin-3-yl)-chromen-4-one Hydrochloride], the inhibition of cells in experiment [1] (MDA-MB435S, compound A 1 μM alone) is recorded as 32%; in experiment [5] (G361, compound A 0.3 μM alone), 2%; in experiment [8] (A375, compound A 3 μM alone), 46%. Moreover, the IC50 in experiment [1] (MDAMB435S, cytotoxicity, Hydrochloride, read-out: IC50 in μM (±SEM)) is 0.85 µM and 0.7 µM. Moreover, the “cells in early apoptosis (annexin stained cells)” value in experiment [2] is listed as 8%. The “apoptosis (sub G1 phase)” value came out at 9.48% in experiment [3] and 19.63% in experiment [6] (compound A 1 μM alone). In addition, the “sensitivity of the cell line (dose response curve)” value in experiment [4] and in experiment [7] was “equally sensitive” each time.
For the compound `CCCS(=O)(=O)Nc1ccc(F)c(C(=O)c2c[nH]c3ncc(-c4ccc(Cl)cc4)cc23)c1F` [vemurafenib, reference compound], the inhibition at 1 µM was 31% in experiment [1] (Homo sapiens, MDA-MB-435S, MDA-MB435S, vemurafenib 1 μM alone, read-out: inhibition of cells); 30% in experiment [5] (Homo sapiens, G-361, G361, vemurafenib 1 μM alone, read-out: inhibition of cells); 23% in experiment [8] (Homo sapiens, A-375, A375, vemurafenib 1 μM alone, read-out: inhibition of cells). The “cells in early apoptosis (annexin stained cells)” value in experiment [2] was 20%. The “apoptosis (sub G1 phase)” value came to 2.3% in experiment [3] and 15.12% in experiment [6] (vemurafenib 10 μM alone). In addition, the G1 arrest in experiment [3] (vemurafenib 1 μM, control cells 72.36%) is reported as 91.94%; in experiment [6] (vemurafenib 10 μM, control cells 67.38%) it was 76.78%.

The values are drawn from patent US12383530B2, “Pharmaceutical combination for the treatment of melanoma” (Piramal Enterprises Limited, priority 2013, dated 2025).
